{"source": "patent US20220280469A1", "about": "“PHARMACEUTICAL COMPOUND AND PREPARATION METHOD THEREFOR AND USE THEREOF” (priority 2019, published 2022)", "key": {"[1]": {"tested_on": "PANC-1 subcutaneous transplantation tumor", "test": "Anti-tumor effect in PANC-1 subcutaneous transplantation tumor model", "type": "in vivo, BALB/c Nude mouse", "conditions": "4 mg/kg cisplatin (effective dose), once a week, 4 times", "method": "The human pancreatic cancer cell strain PANC-1 was cultured in a DMEM high-glucose medium containing 10% FBS. Before being used, the cells were digested with pancreatin and centrifuged for 3 min at 800 r·min^−1 to remove the supernatant. The cells were resuspended in a serum-free DMEM medium, matrigel was added at a ratio of 1:1, and the number of the cells was adjusted to 5×10^6/mL. The cell suspension was inoculated subcutaneously to the right thigh at 100 μL/mouse. […] The tumor-bearing mice were randomly divided into 5 groups with 6 mice in each. […] The drugs were administered via tail vein injection. The administration was performed once a week, 4 times in total. The long (l) and short (r) diameters of the tumors were measured with a vernier caliper every other day to calculate tumor volume. All mice were sacrificed on day 11 after the administration cycle was completed, and they were dissected to get the tumors, which were then weighed. The tumor volume calculation formula was as follows: V=(l×r^2)/2."}, "[2]": {"tested_on": "MIA PaCa-2 pancreas orthotopic transplantation tumor", "test": "Kaplan-Meier survival in MIA PaCa-2 pancreas orthotopic transplantation model", "conditions": "once every 7 days, three times", "procedure": "Pancreas of BALB/c nude mice was transplanted orthotopically with Mia paca-2 cells (reporter gene: luciferase) to prepare pancreatic cancer transplantation in situ models, and then the mice were randomly divided into 4 groups with 6 mice in each, and administered with drugs 10 days after the models were established. […] The drugs were administered once every 7 days, three times in total. The mice were weighed every other day, and the survival state of the mice was recorded. Kaplan-Meier survival curves were drawn to examine the influence of different drug treatments on the survival state of the mice."}, "[3]": {"test": "Pharmacokinetics and tumor targeting of Pt in tumor tissue of pancreatic cancer orthotopic transplantation model mice", "type": "in vivo, mouse", "conditions": "8 mg/kg", "method": "Mouse pancreatic cancer cells transfected with luciferase reporter genes were used to prepare mouse pancreatic cancer orthotopic transplantation models. The tumor volume of the mice were determined by injecting […] into tail veins, and the mice with similar tumor volume were selected for evaluation of systemic PK and tumor-targeting property. […] Pharmacokinetic parameters were calculated using PK Solver 2.0."}}}
{"smiles": "N.N.[Cl][Pt][Cl]", "note": "[cisplatin, cis-diamminedichloroplatinum]", "values": [{"measurement": "body weight of the mice during the administration process", "setting": "[1]", "value": "remarkably decreased"}, {"measurement": "inhibition of PANC-1 subcutaneous transplantation tumor (tumor volume, tumor weight)", "setting": "[1]; tail vein", "value": "no significant inhibition effect"}, {"measurement": "body weight of the mice in the whole treatment process", "setting": "[2]", "value": "significantly reduced"}, {"measurement": "ID% (drug amount at a tumor site x 100%/injected drug amount)", "setting": "[3]", "value": "less than 5%"}]}
